Source: paper PMC10787068, “Targeting the Mitochondrial Chaperone TRAP1 Alleviates Vascular Pathologies in Ischemic Retinopathy” (Advanced Science, 2023)
Entries after “also recorded” stand apart in the source; their conditions may differ.

Key:
[1] = Eye irritation test with MCTT HCE (OECD test guideline 492); assay type: cell-based, human; conditions: human; 3D culture MCTT HCE, TRAP1 inhibitors at 2 mM, WST-1 assay, n = 4, mean ± SEM; read-out: Percentage viability (%)
Experimental: An eye irritation test was performed using a 3D human corneal epithelial (HCE) model, called MCTT HCE (KeraSkin; Biosolution, Seoul, Republic of Korea), for OECD test guideline 492, following the manufacturer's instructions. In brief, HCE tissues were incubated overnight in medium provided by the supplier. Thereafter, 2 mM MitoQ, SB‐U014, and SB‐U015 were applied to the upper epithelial surface of HCE tissues and incubated for 10 min. After removing the drugs by washing the tissues with PBS, the tissues were further incubated for 16 h, and then subjected to the WST‐1 assay for viability assessment and fixed in 4% PFA for histological analysis. […]
(§1) their cytotoxic activities were analyzed in four independent experiments by trypan blue staining. The calculated IC50 values are presented in the normal cell cytotoxicity column in Table 1. […] A 3D culture of human corneal epithelium (MCTT HCE) was incubated with 2 mM TRAP1 inhibitors and analyzed by H&E staining.
The culture thickness (n = 5) was measured and analyzed (Table S1). […] After topical application of 2 mM MitoQ, SB-U014, or SB-U015 once daily for 6 days, the mouse cornea was harvested and analyzed by H&E staining. […]
A 3D culture of human corneal epithelium (MCTT HCE) was incubated with 2 mM TRAP1 inhibitors, and the percentage viability was analyzed by the WST-1 assay (n = 4). Absorbance was measured with a microplate reader. […]

OIR mice = test: Oxygen‐induced retinopathy (OIR) mouse model, retinal vasculature (CD31 whole‐mount); assay type: in vivo
Experimental: Figure 7 Normalized retinal vascularization upon topical application of TRAP1 inhibitors. A) HIF1α degradation induced by TRAP1 inhibitors. MIO‐M1 cells were incubated with various concentrations of TRAP1 inhibitors as indicated for 6 h under hypoxia and analyzed by western blotting. B) Quantification of HIF1α protein degradation. The HIF1α band intensities in western blot data obtained as in (A) were analyzed and compared. The data are mean ± SEM from four independent experiments. C) Vascular structure of P17 OIR mouse retinas after topical drug application. Vehicle and 2 mM TRAP1 inhibitors were topically administered to the left and right eyes, respectively, of OIR mice at P12 once per day for 5 days. At P17, mice were sacrificed and analyzed by whole‐mount staining with an anti‐CD31 antibody and confocal microscopy. Scale bar, 500 µm. D) Quantification of avascular areas and neovascular tuft. Retinal images collected as in (C) were quantitatively analyzed (n = 5 mice/group). Data information: Data are expressed as mean ± SEM. Student t‐test, ^*** P < 0.001; ^* […].
To induce OIR (Figure 1A), mouse pups were exposed to 75% oxygen at postnatal day 7 (P7) until P12 together with their mothers in a hyperoxic chamber (InVivo Cabinet Model 15; Coy Laboratory; Grass Lake, MI, USA). Hyperoxia‐exposed pups were returned to room air at P12 with nursing mothers until P17. At P17, mice were sacrificed, and eyes were enucleated.
For intravitreal injection, MitoQ was injected into the vitreous cavity using a Nanoliter 2000 microinjector (World Precision Instruments; Sarasota, FL, USA) fitted with glass capillary pipettes under anesthesia. In total, 1 µl MitoQ (0.1 mg/ml) was delivered into the right eye of an OIR mouse once at P12. The contralateral eye was injected with vehicle (0.1% DMSO prepared in distilled water) as a control. […]
Fixed eyes were dissected to isolate retinas under a microscope. […] Fluorescence images were acquired using an Axio Zoom fluorescence microscope (Zeiss; Oberkochen, Germany) or a LSM780 or LSM980 confocal microscope (Zeiss). […]

HIF1α = HIF1α degradation in MIO‐M1 cells under hypoxia (western blotting); assay type: cell-based, human; conditions: MIO‐M1 cells, 6 h under hypoxia
[2] = Normal cell cytotoxicity in primary Müller cells (trypan blue staining); assay type: cell-based; conditions: mouse, primary Müller cells from mouse retina, 24 hr under hypoxia, n = 4, mean ± SEM
Experimental: (§2) Mouse primary Müller cells were isolated as reported previously.^[ [43] ^] In brief, retinas were isolated from P5–P7 mice and dissociated using a Papain Dissociation Kit (Worthington Industries; Columbus, OH, USA). Collected retinal cells were incubated on a plate coated with 0.1% gelatin (Sigma), and the culture media (DMEM supplemented with 10% FBS and 1% penicillin‐streptomycin) was changed once every 2 days. Cells were subcultured into a new plate and incubated for another 7 days. Adherent cells were largely primary Müller cells, as confirmed by immunocytochemical analysis using an anti‐glutamine synthetase antibody (Millipore). […]
(§3) bar, 500 μm. B) Quantification of avascular and neovascular tuft areas in OIR mice intravitreally injected with MitoQ (n = 5 mice/group). […] Harvested retinal samples were whole-mounted and analyzed as in (A). […]
(§4) Scale bar, 500 μm. D) Quantification of avascular and neovascular tuft areas in OIR mice topically treated with MitoQ (n = 6 mice/group). […]
as §1
(§5) The culture thickness (n = 5) was measured and analyzed (Table S1). […]

[3] = tested on: mouse primary Müller cells; test: as above; assay type: cell-based; conditions: 24 hr under hypoxia, n = 4, mean ± SEM
Experimental: as §2, §3, §4, §1, §5

## COC1=C(OC)C(=O)C(CCCCCCCCCC[P+](c2ccccc2)(c2ccccc2)c2ccccc2)=C(C)C1=O [MitoQ, mitoquinone]
[1]
  viability at 10 min, 2 mM: 63.47 ± 0.23%
OIR mice; intravitreal injection, 1 µl of 0.1 mg/ml once at P12, analysed at P17, n = 5 mice/group
  avascular and neovascular tuft areas in OIR mice: significantly reduced; also recorded: dramatically reduced
OIR mice; topical, 2 mM once per day for 5 days from P12, analysed at P17, n = 5 mice/group
  avascular and neovascular tuft areas in OIR mice: reduced
OIR mice; topical, 10 μl of 1 mM three times daily from P12 to P17, n = 6 mice/group
  avascular and neovascular tuft areas in OIR mice: reduced; also recorded: potent activity
HIF1α; Homo sapiens, western blot band intensity, n = 4, mean ± SEM
  IC50: 0.077 ± 0.016 µM
HIF1α
  potency in inducing the degradation of HIF1α relative to gamitrinib: more than 10 fold
[2]
  IC50 at 24 h: 22 µM
[3]
  IC50: 22.5 ± 0.46 µM
